Values after ≈ are worked out from the molar mass of the structure shown.
Structure (SMILES) | solubility (25 °C) [mM] | other results
CC=CC(O)CC (stereo not drawn) | 380 (≈ 38100 µg/mL) | 
CC(C)CCC(C)O (stereo not drawn) | 41.9 (≈ 4870 µg/mL) | 
CC(C)C(C)O (stereo not drawn) | 635 (≈ 56000 µg/mL) | 
CCCCCC(C)(C)O |  | solubility (30 °C): 19.1 mM (≈ 2490 µg/mL)
CC(C)CCCO | 73.4 (≈ 7500 µg/mL) | 
CCCC(O)CCC | 40.4 (≈ 4700 µg/mL) | 
CCCCC(C)(C)O | 83.5 (≈ 9700 µg/mL) | 
C=CC(O)C(C)C (stereo not drawn) | 305 (≈ 30600 µg/mL) | 
CCCCC(C)(O)CC (stereo not drawn) |  | solubility (28 °C): 23.2 mM (≈ 3020 µg/mL)
CCC[C@](C)(O)CC | 101 (≈ 11700 µg/mL) | 

Further lines, with some results ahead:

solubility (25 °C) [mM] | Structure (SMILES) | other results
0.234 (≈ 37 µg/mL) | CCCCCCCCCCO | 
28.5 (≈ 3310 µg/mL) | CC(C)(C)CCCO | 
4.15 (≈ 540 µg/mL) | CCCCCCCCO | 

— the OPERA property sets (Mansouri et al. 2018)
